Measurements: patent publication US6436963B1 (priority 1998, dated 2002)

Key:
Format in all cases: in vivo
Erysiphe graminis = assay: Powdery Mildew of Wheat (ERYSGT), protectant spray test on wheat seedlings; settings: wheat (cultivar Monon), sprayed to run off at 100 ppm, inoculated after 24 hours
Puccinia recondita = assay: Brown Rust (PUCCRT), protectant spray test on wheat seedlings; settings: wheat (cultivar Monon), sprayed to run off at 100 ppm, inoculated after 24 hours
Phytophthora infestans = settings: tomatoes (cultivar Rutgers), sprayed to run off at 100 ppm, inoculated after 24 hours
Leptosphaeria nodorum = assay: Glume Blotch of Wheat (LEPTNO), protectant spray test on wheat seedlings; settings: wheat (cultivar Monon), sprayed to run off at 100 ppm, inoculated after 24 hours

SMILES: CNC(=O)C(=NOC)c1ccccc1COc1ncc(C(OC(C)=O)c2ccccc2Cl)cc1Cl (centres unmarked) [Example 74]
- ERYSGT control of plant disease (Erysiphe graminis): ++ (++ = 75-100% control of plant disease)
- PUCCRT control of plant disease (Puccinia recondita): ++ (++ = 75-100% control of plant disease)
- PHYTIN control of plant disease (Phytophthora infestans): ++ (++ = 75-100% control of plant disease)
- LEPTNO control of plant disease (Leptosphaeria nodorum): ++ (++ = 75-100% control of plant disease)

SMILES: CNC(=O)C(=NOC)c1ccccc1COc1ncc(C(OC(C)=O)c2cccc(Cl)c2)cc1Cl (centres unmarked) [Example 75]
- ERYSGT control of plant disease (Erysiphe graminis): ++ (++ = 75-100% control of plant disease)
- PUCCRT control of plant disease (Puccinia recondita): ++ (++ = 75-100% control of plant disease)
- PHYTIN control of plant disease (Phytophthora infestans): ++ (++ = 75-100% control of plant disease)
- LEPTNO control of plant disease (Leptosphaeria nodorum): ++ (++ = 75-100% control of plant disease)

SMILES: CNC(=O)C(=NOC)c1ccccc1COc1ncc(C(OC(C)=O)c2ccccc2)cc1Cl (centres unmarked) [Example 76]
- ERYSGT control of plant disease (Erysiphe graminis): ++ (++ = 75-100% control of plant disease)
- PUCCRT control of plant disease (Puccinia recondita): ++ (++ = 75-100% control of plant disease)
- PHYTIN control of plant disease (Phytophthora infestans): ++ (++ = 75-100% control of plant disease)
- LEPTNO control of plant disease (Leptosphaeria nodorum): ++ (++ = 75-100% control of plant disease)

SMILES: CNC(=O)C(=NOC)c1ccccc1COc1ncc(C(OC(C)=O)c2cccs2)cc1Cl (centres unmarked) [Example 77]
- ERYSGT control of plant disease (Erysiphe graminis): ++ (++ = 75-100% control of plant disease)
- PUCCRT control of plant disease (Puccinia recondita): ++ (++ = 75-100% control of plant disease)
- PHYTIN control of plant disease (Phytophthora infestans): ++ (++ = 75-100% control of plant disease)
- LEPTNO control of plant disease (Leptosphaeria nodorum): ++ (++ = 75-100% control of plant disease)

SMILES: CNC(=O)C(=NOC)c1ccccc1COc1ncc(C(OC(C)=O)c2ccc(OC(F)(F)F)cc2)cc1Cl (centres unmarked) [Example 78]
- ERYSGT control of plant disease (Erysiphe graminis): ++ (++ = 75-100% control of plant disease)
- PUCCRT control of plant disease (Puccinia recondita): ++ (++ = 75-100% control of plant disease)
- PHYTIN control of plant disease (Phytophthora infestans): ++ (++ = 75-100% control of plant disease)
- LEPTNO control of plant disease (Leptosphaeria nodorum): ++ (++ = 75-100% control of plant disease)

SMILES: CNC(=O)C(=NOC)c1ccccc1COc1ncc(C(OC)c2ccc(OC(F)(F)F)cc2)cc1Cl (centres unmarked) [Example 79]
- ERYSGT control of plant disease (Erysiphe graminis): ++ (++ = 75-100% control of plant disease)
- PUCCRT control of plant disease (Puccinia recondita): ++ (++ = 75-100% control of plant disease)
- PHYTIN control of plant disease (Phytophthora infestans): − (− = 0-24% control of plant disease)
- LEPTNO control of plant disease (Leptosphaeria nodorum): ++ (++ = 75-100% control of plant disease)

SMILES: CCCCOC(C)c1cnc(OCc2ccccc2C(=NOC)C(=O)NC)c(Cl)c1 (centres unmarked) [Example 80]
- ERYSGT control of plant disease (Erysiphe graminis): ++ (++ = 75-100% control of plant disease)
- PUCCRT control of plant disease (Puccinia recondita): ++ (++ = 75-100% control of plant disease)
- PHYTIN control of plant disease (Phytophthora infestans): − (− = 0-24% control of plant disease)
- LEPTNO control of plant disease (Leptosphaeria nodorum): ++ (++ = 75-100% control of plant disease)

SMILES: CNC(=O)C(=NOC)c1ccccc1COc1ncc(C(O)c2ccccc2C(F)(F)F)cc1Cl (centres unmarked) [Example 81]
- ERYSGT control of plant disease (Erysiphe graminis): ++ (++ = 75-100% control of plant disease)
- PUCCRT control of plant disease (Puccinia recondita): ++ (++ = 75-100% control of plant disease)
- PHYTIN control of plant disease (Phytophthora infestans): ++ (++ = 75-100% control of plant disease)
- LEPTNO control of plant disease (Leptosphaeria nodorum): + (+ = 25-74% control of plant disease)

SMILES: CNC(=O)C(=NOC)c1ccccc1COc1ncc(C(OC(C)=O)c2ccccc2F)cc1Cl (centres unmarked) [Example 82]
- ERYSGT control of plant disease (Erysiphe graminis): ++ (++ = 75-100% control of plant disease)
- PUCCRT control of plant disease (Puccinia recondita): ++ (++ = 75-100% control of plant disease)
- PHYTIN control of plant disease (Phytophthora infestans): ++ (++ = 75-100% control of plant disease)
- LEPTNO control of plant disease (Leptosphaeria nodorum): ++ (++ = 75-100% control of plant disease)

SMILES: CNC(=O)C(=NOC)c1ccccc1COc1ncc(C(OC(C)=O)c2ccc3ccccc3c2)cc1Cl (centres unmarked) [Example 83]
- ERYSGT control of plant disease (Erysiphe graminis): ++ (++ = 75-100% control of plant disease)
- PUCCRT control of plant disease (Puccinia recondita): ++ (++ = 75-100% control of plant disease)
- PHYTIN control of plant disease (Phytophthora infestans): ++ (++ = 75-100% control of plant disease)
- LEPTNO control of plant disease (Leptosphaeria nodorum): ++ (++ = 75-100% control of plant disease)

SMILES: CNC(=O)C(=NOC)c1ccccc1COc1ncc(C(O)c2cccc(C)c2)cc1Cl (centres unmarked) [Example 84]
- ERYSGT control of plant disease (Erysiphe graminis): ++ (++ = 75-100% control of plant disease)
- PUCCRT control of plant disease (Puccinia recondita): ++ (++ = 75-100% control of plant disease)
- PHYTIN control of plant disease (Phytophthora infestans): ++ (++ = 75-100% control of plant disease)
- LEPTNO control of plant disease (Leptosphaeria nodorum): − (− = 0-24% control of plant disease)

SMILES: CNC(=O)C(=NOC)c1ccccc1COc1ncc(C(O)c2cccc(C)c2)cc1Cl (centres unmarked) [Example 85]
- ERYSGT control of plant disease (Erysiphe graminis): ++ (++ = 75-100% control of plant disease)
- PUCCRT control of plant disease (Puccinia recondita): ++ (++ = 75-100% control of plant disease)
- PHYTIN control of plant disease (Phytophthora infestans): − (− = 0-24% control of plant disease)
- LEPTNO control of plant disease (Leptosphaeria nodorum): ++ (++ = 75-100% control of plant disease)

SMILES: CNC(=O)C(=NOC)c1ccccc1COc1ncc(C(O)(CO)c2ccccc2)cc1Cl (centres unmarked) [Example 86]
- ERYSGT control of plant disease (Erysiphe graminis): − (− = 0-24% control of plant disease)
- PUCCRT control of plant disease (Puccinia recondita): ++ (++ = 75-100% control of plant disease)
- PHYTIN control of plant disease (Phytophthora infestans): ++ (++ = 75-100% control of plant disease)
- LEPTNO control of plant disease (Leptosphaeria nodorum): − (− = 0-24% control of plant disease)

SMILES: CNC(=O)C(=NOC)c1ccccc1COc1ncc(C(O)C2CCCCC2)cc1Cl (centres unmarked) [Example 87]
- ERYSGT control of plant disease (Erysiphe graminis): ++ (++ = 75-100% control of plant disease)
- PUCCRT control of plant disease (Puccinia recondita): ++ (++ = 75-100% control of plant disease)
- PHYTIN control of plant disease (Phytophthora infestans): ++ (++ = 75-100% control of plant disease)
- LEPTNO control of plant disease (Leptosphaeria nodorum): ++ (++ = 75-100% control of plant disease)

SMILES: CNC(=O)C(=NOC)c1ccccc1COc1ncc(C(OC(C)=O)c2ccccc2C(F)(F)F)cc1Cl (centres unmarked) [Example 88]
- ERYSGT control of plant disease (Erysiphe graminis): ++ (++ = 75-100% control of plant disease)
- PUCCRT control of plant disease (Puccinia recondita): ++ (++ = 75-100% control of plant disease)
- PHYTIN control of plant disease (Phytophthora infestans): ++ (++ = 75-100% control of plant disease)
- LEPTNO control of plant disease (Leptosphaeria nodorum): ++ (++ = 75-100% control of plant disease)

SMILES: CNC(=O)C(=NOC)c1ccccc1COc1ncc(C(C)Oc2ccc(OC)cc2)cc1Cl (centres unmarked) [Example 89]
- ERYSGT control of plant disease (Erysiphe graminis): ++ (++ = 75-100% control of plant disease)
- PUCCRT control of plant disease (Puccinia recondita): ++ (++ = 75-100% control of plant disease)
- PHYTIN control of plant disease (Phytophthora infestans): ++ (++ = 75-100% control of plant disease)
- LEPTNO control of plant disease (Leptosphaeria nodorum): ++ (++ = 75-100% control of plant disease)

SMILES: CCC(O)c1cnc(OCc2ccccc2C(=NOC)C(=O)NC)c(Cl)c1 (centres unmarked) [Example 90]
- ERYSGT control of plant disease (Erysiphe graminis): ++ (++ = 75-100% control of plant disease)
- PUCCRT control of plant disease (Puccinia recondita): ++ (++ = 75-100% control of plant disease)
- PHYTIN control of plant disease (Phytophthora infestans): ++ (++ = 75-100% control of plant disease)
- LEPTNO control of plant disease (Leptosphaeria nodorum): + (+ = 25-74% control of plant disease)

SMILES: CCC(OC(C)=O)c1cnc(OCc2ccccc2C(=NOC)C(=O)NC)c(Cl)c1 (centres unmarked) [Example 91]
- ERYSGT control of plant disease (Erysiphe graminis): ++ (++ = 75-100% control of plant disease)
- PUCCRT control of plant disease (Puccinia recondita): ++ (++ = 75-100% control of plant disease)
- PHYTIN control of plant disease (Phytophthora infestans): ++ (++ = 75-100% control of plant disease)
- LEPTNO control of plant disease (Leptosphaeria nodorum): ++ (++ = 75-100% control of plant disease)

SMILES: CNC(=O)C(=NOC)c1ccccc1COc1ncc(C(OC(C)=O)c2ccc(C)cc2C)cc1Cl (centres unmarked) [Example 92]
- ERYSGT control of plant disease (Erysiphe graminis): ++ (++ = 75-100% control of plant disease)
- PUCCRT control of plant disease (Puccinia recondita): ++ (++ = 75-100% control of plant disease)
- PHYTIN control of plant disease (Phytophthora infestans): ++ (++ = 75-100% control of plant disease)
- LEPTNO control of plant disease (Leptosphaeria nodorum): ++ (++ = 75-100% control of plant disease)

SMILES: CNC(=O)C(=NOC)c1ccccc1COc1ncc(C(O)c2cccc(F)c2)cc1Cl (centres unmarked) [Example 93]
- ERYSGT control of plant disease (Erysiphe graminis): ++ (++ = 75-100% control of plant disease)
- PUCCRT control of plant disease (Puccinia recondita): ++ (++ = 75-100% control of plant disease)
- PHYTIN control of plant disease (Phytophthora infestans): ++ (++ = 75-100% control of plant disease)
- LEPTNO control of plant disease (Leptosphaeria nodorum): ++ (++ = 75-100% control of plant disease)

SMILES: CNC(=O)C(=NOC)c1ccccc1COc1ncc(C(O)(COS(=O)(=O)c2ccc(C)cc2)c2ccccc2)cc1Cl (centres unmarked) [Example 94]
- ERYSGT control of plant disease (Erysiphe graminis): ++ (++ = 75-100% control of plant disease)
- PUCCRT control of plant disease (Puccinia recondita): ++ (++ = 75-100% control of plant disease)
- PHYTIN control of plant disease (Phytophthora infestans): ++ (++ = 75-100% control of plant disease)
- LEPTNO control of plant disease (Leptosphaeria nodorum): ++ (++ = 75-100% control of plant disease)

SMILES: CNC(=O)C(=NOC)c1ccccc1COc1ncc(C(OC(C)=O)c2ccc(OC)cc2)cc1Cl (centres unmarked) [Example 95]
- ERYSGT control of plant disease (Erysiphe graminis): ++ (++ = 75-100% control of plant disease)
- PUCCRT control of plant disease (Puccinia recondita): ++ (++ = 75-100% control of plant disease)
- PHYTIN control of plant disease (Phytophthora infestans): ++ (++ = 75-100% control of plant disease)
- LEPTNO control of plant disease (Leptosphaeria nodorum): ++ (++ = 75-100% control of plant disease)

SMILES: CNC(=O)C(=NOC)c1ccccc1COc1ncc(C(OC(C)=O)c2cccc(F)c2)cc1Cl (centres unmarked) [Example 96]
- ERYSGT control of plant disease (Erysiphe graminis): ++ (++ = 75-100% control of plant disease)
- PUCCRT control of plant disease (Puccinia recondita): ++ (++ = 75-100% control of plant disease)
- PHYTIN control of plant disease (Phytophthora infestans): ++ (++ = 75-100% control of plant disease)
- LEPTNO control of plant disease (Leptosphaeria nodorum): ++ (++ = 75-100% control of plant disease)
